Data: patent US11229207B2, “Topical avermectin formulations and methods for elimination and prophylaxis of susceptible and treatment resistant strains of head lice” (priority 2006, dated 2022)
“And” between values parts separate entries of the source, which are not always exact repeats. Identical values can stand only once. Like-named read-outs stand apart in the source and are kept apart here.

Experiments:
[1] = system: head lice; conditions: cited from earlier work
[2] = system: SF-HL strain; conditions: Moon et al. 2003; cited from earlier work
[3] = system: head lice; conditions: cited from earlier work; remark: listed apart in the source
[4] = system: SF-HL strain of permethrin-resistant human head lice; experiment: Hair tuft mortality bioassay, permethrin-resistant SF-HL lice; format: in vivo, Pediculus humanus capitis; parameters: LT50 (lethal time to 50% mortality): unit not given beside the values; conditions: 10 minute exposure
From the text: The SF-HL strain of permethrin-resistant human head lice (Pediculus humanus capitis, Phthiraptera:Pediculidae) is collected from infested children in Plantation and Homestead, Fla. and is maintained on an in vitro feeding system at the University of Massachusetts at Amherst, Mass. as described by Yoon et al. (2006). Lice are maintained without a human host on the in vitro rearing system from about 24 to about 36 generations. Permethrin-resistant SF-HL are selected periodically using 1% permethrin-treated filter papers (Yoon et al. 2006). Filter papers (35 mm diameter, Whatman No. 1) are immersed into 1% permethrin dissolved in acetone (w/v) for 10 seconds and is air dried in a dark fumehood from about 20 to about 30 minutes. Mixed developmental stages (first instars to adult) are placed on the treated filter paper and exposed for about 5 hours. Surviving lice are transferred back into the feeding system. The SF-HL strain are susceptible to Ovide® (0.5% malathion), but resistant to Nix® (1% permethim) and cross-resistant to DDT treatments. (Moon et al. 2003).
Mortality bioassays are performed to compare lethal time to 50% mortality values (LT50) between the ivermectin formulations, Nix®, and Ovide®. Experimental lice are newly hatched first instars (less than 24 hours old). The lice are randomly taken from the in vitro rearing system, where the lice take an overnight blood meal. Lice (about 30 lice/treatment) are placed on an individual hair tuft (about 300 strands, about 4 cm in length) using sterile forceps, and the treatment is gently rubbed into the hair until saturation occurs.
After a 10 minute exposure period, the hair tuft with lice are washed sequentially in three separate water baths, containing about 10 ml of ddH2O for about 5 seconds each. The washed hair tuft with lice is blotted onto stacks of filter paper and air dried for about 5 minutes. Any lice dislodged during treatment or washing are placed back onto the treated hair tuft. After drying, the treated hair tuft with lice is examined under a dissecting microscope and the number of dead lice is recorded.
A louse is considered dead if it can not right itself when inverted and when its legs have ceased all movements when probed. Treated hair tufts with lice are then placed onto the feeding membrane in the in vitro rearing system and are maintained at 31° C. and 75% humidity. The numbers of dead lice are reassessed at 10 minute intervals until a greater than 90% mortality is achieved. The timing for mortality begins immediately following the 10 minute exposure period. Because of this, mortality is not assessed during the washing and drying intervals (about 5 minutes). Log time versus logit percent mortality regression lines are generated to determine LT50 and LT95 values and maximum log-likelihood ratio tests are performed to test the equality (slope and intercept) of the regression lines (p<0.05, Polo PC, LeOra Software, 1987).
To determine whether ivermectin in formulation performs better than ivermectin alone, blood-fed lice are placed onto 0.5% (w/v) ivermectin formulation-treated hair tufts as described above. Blood-fed lice are also placed onto hair tufts that are treated with 0.5% ivermectin in acetone (acetone is allowed to volatilize in a fumehood for about 1 hour prior to transferring lice to the treated hair tuft), washed, and transferred to the in vitro rearing system as described above.

[5] = SF-HL lice, Ovide values are estimated times

For “22,23-dihydroavermectin B1a and B1b [ivermectin]”, the “effect against head lice in humans” value ([1]; single oral 200 μg/kg dose, n=26 (Glaziou et al. 1994)) is listed as “effective” and the “results against head lice infestation” value ([1]; single oral dose of 100-200 μg/kg (Dunne et al. 1991)) is listed as “Positive, but not absolute, results”.

For `Clc1ccc(C(c2ccc(Cl)cc2)C(Cl)(Cl)Cl)cc1` [DDT], the “status of the SF-HL strain towards the treatment” value [2] is listed as “cross-resistant”.

In the case of `Cl[C@H]1[C@H](Cl)[C@@H](Cl)[C@@H](Cl)[C@H](Cl)[C@H]1Cl` [lindane], the “efficacy for treating head lice” value ([3]; reports in other parts of the world) is given as 61% and 93% and the “efficacy for treating head lice” value ([3]; reports in the U.S.) is given as 17%.

With ivermectin [0.5% (non-formulated)] the “LT50 (lethal time to 50% mortality)” value [4, 5] was 221.8, the LT95 [4, 5] was 419.4 and the “times faster than Nix at the LT50” value ([4]; SF-HL) was 27.9 times. For the same molecule, the “times faster than Nix at the LT95” value ([4]; SF-HL) was 51.5 times, the “times faster than ddH2O treatment at the LT50” value ([4]; SF-HL) was 96.7 times and the “times faster than ddH2O treatment at the LT95” value ([4]; SF-HL) was 103.0 times. The “times faster than placebo formulation at the LT50” value ([4]; SF-HL) was 31.2 times and the “times faster than placebo formulation at the LT95” value ([4]; SF-HL) was 82.4 times.
